# Laboratory results as given in ChEMBL document CHEMBL1821550 (Bioorg Med Chem Lett, 2011).
# Test: physchem
# Settings: octanol/water
row,Compound,logD
1,CC(C)c1nc2ccccc2c(=O)n1-c1ccc(OCCCN2CCCC2)cc1,2.8
2,COc1cccc2c(=O)n(-c3ccc(OCCCN4CCCC4)cc3)c(C)nc12,1.7
3,Fc1ncccc1-c1cnc2nc(N3CCC(N4CCCCC4)CC3)sc2c1,1.5
4,Cc1ccc(-c2ccc(-c3ccc4cc(CCN5CCC[C@H]5C)ccc4n3)s2)s1,5.5
5,Cc1nc(-c2nc(-c3ccc4cc(CCN5CCC[C@H]5C)ccc4n3)cs2)cs1,3.6
6,O=C(/C=C/c1ccc(C(F)(F)F)cc1)N1CCC[C@H]1CN1CCCC1,2.4
7,C[C@@H]1CCCN1CCc1ccc2nc(-c3ccc(N4CCCCC4)cc3)ccc2c1,3.1
8,O=c1c2ccccc2nc(-c2ccccc2)n1-c1ccc(OCCCN2CCCC2)cc1,3.4
9,CC(C)N1CCN(C(=O)N2Cc3ccccc3C2)CC1,0.7
10,Cc1onc(-c2ccc(Cl)cc2)c1-c1ccc2cc(CCN3CCC[C@H]3C)ccc2n1,4.9
11,C[C@@H]1CCCN1CCc1ccc2nc(-c3cnccn3)ccc2c1,1.8
12,Cc1cc(C(F)(F)F)cc(-n2ncc(-c3ccc4cc(CCN5CCC[C@H]5C)ccc4n3)c2C)n1,4.6
13,O=c1c2ccccc2nc(-c2ccc(OCCCN3CCCCC3)cc2)n1-c1ccccc1,3.8
14,C[C@@H]1CCCN1CCc1ccc(-c2ccc(S(=O)(=O)N3CCCCC3)cc2)cc1,3.1
15,C[C@H]1Sc2ccccc2O[C@@H]1c1ccc(OCCCN2CCCC2)cc1,3.3
16,CC(C)N1CCN(C(=O)N2CCc3ccccc3C2)CC1,1
17,CC1=C(c2ccc(OCCCN3CCCC3)cc2)Oc2ccccc2S1(=O)=O,1.9
18,C[C@@H]1CCCN1CCc1ccc2nc(-c3ccc(Cl)nc3)ccc2c1,3.4
19,Cc1nc2c(C(F)(F)F)cccc2c(=O)n1-c1ccc(OCCCN2CCCC2)cc1,2.6
20,Cc1nc2cccc(C(F)(F)F)c2c(=O)n1-c1ccc(OCCCN2CCCC2)cc1 [MK-0249],2.6
21,N#Cc1ccc(OC2CNC(C(=O)N3CCCN(C4CCC4)CC3)C2)cc1 (configuration not stated),-0.2
22,Cc1c(-c2ccc3cc(CCN4CCC[C@H]4C)ccc3n2)sc2nc3ccccc3n12,4.5
23,COc1cc2c(cc1OC)CN(C(=O)N1CCN(C(C)C)CC1)CC2,1
24,Cc1nc(-c2ccncc2)sc1-c1ccc2cc(CCN3CCC[C@H]3C)ccc2n1,3.5
25,Cc1ccc2nc(C)n(-c3ccc(OCCCN4CCCC4)cc3)c(=O)c2c1,2.2
26,Cc1c(-c2ccc3cc(CCN4CCC[C@H]4C)ccc3n2)cnn1-c1ccccn1,3.4

row,Compound,logD
1,COCCNS(=O)(=O)c1ccc(-c2ccc(CCN3CCC[C@H]3C)cc2)cc1,1.8
2,Cc1ccc2cc(CCN3CCC[C@H]3C)ccc2n1,2
3,N#Cc1cncc(-c2cc3sc(N4CCC(N5CCCCC5)CC4)nc3cn2)c1,1
4,C[C@@H]1CCCN1CCc1ccc2nc(-c3cnc(-c4ccccc4)s3)ccc2c1,4.3
5,c1cc(C2CCOCC2)ccc1OCCCN1CCCCC1,1.8
6,CCn1c(-c2ccc(OCCCN3CCCCC3)cc2)nc2ccccc2c1=O,2.6
7,C[C@@H]1CCCN1CCc1ccc(-c2ccc(S(=O)(=O)Nc3ccccc3)cc2)cc1,3.5
8,C=C(N(C)Cc1ccc(-c2ccccc2)cc1)N1CCN(C(C)C)CC1,1.8
9,c1cc(N2CCCCC2)ccc1OCCCN1CCCCC1,1.7
10,COCC1CCCN1S(=O)(=O)c1ccc(-c2ccc(CCN3CCC[C@H]3C)cc2)cc1 (some centres not stated),2.5
11,C[C@H]1[C@H](c2ccc(OCCCN3CCCC3)cc2)Oc2ccccc2S1(=O)=O,2.2
12,O=C(C1CC(Oc2cccc(F)c2)CN1)N1CCCN(C2CCC2)CC1 (configuration not stated),0.2
13,CC1CCCN1CCc1ccc2nc(-c3ccsc3)ccc2c1 (configuration not stated),3.3
14,COc1ncc(-c2ccc3cc(CCN4CCC[C@H]4C)ccc3n2)cn1,2.4
15,CC(C)N1CCN(C(=O)N2CCC(c3ccccc3)CC2)CC1,1.6
16,C1=C(c2ccc(OCCCN3CCCCC3)cc2)CCC1,2.9
17,C[C@@H]1CCCN1CCc1ccc2ncccc2c1,1.7
18,Cc1nc2cc(F)ccc2c(=O)n1-c1ccc(OCCCN2CCCC2)cc1,1.9
19,COc1ccc2nc(C)n(-c3ccc(OCCCN4CCCC4)cc3)c(=O)c2c1,1.7
20,Cc1nn(C)cc1-c1ccc2cc(CCN3CCC[C@H]3C)ccc2n1,2.6
21,Cc1nc2cccc(Cl)c2c(=O)n1-c1ccc(OCCCN2CCCC2)cc1,2.4
22,Cc1nc(C)c(-c2ccc3cc(CCN4CCCC4C)ccc3n2)cc1C(N)=O (configuration not stated),2.1
23,C[C@@H]1CCCN1CCc1ccc2nc(-c3cnc4c(c3)OCO4)ccc2c1,2.8
24,Cc1onc(-c2ccccc2)c1-c1ccc2cc(CCN3CCC[C@H]3C)ccc2n1,4.2
25,C[C@@H]1CCCN1CCc1ccc(-c2ccc(S(=O)(=O)N3CCOCC3)cc2)cc1,1.9
26,CC1CCN(c2ccc3cc(CCN4CCC[C@H]4C)ccc3n2)CC1,2.9

row,Compound,logD
1,COc1ccc(-c2cc3sc(N4CCC(N5CCCCC5)CC4)nc3cn2)cn1,1.6
2,CCNS(=O)(=O)c1ccc(-c2ccc(CCN3CCC[C@H]3C)cc2)cc1,2.3
3,Fc1ncccc1-c1cc2sc(N3CCC(N4CCCCC4)CC3)nc2cn1,1.7
4,Clc1cc2sc(N3CCC(N4CCCCC4)CC3)nc2cn1,1.2
5,COc1nccc2c(=O)n(C)c(-c3ccc(OC4CCN(C5CCC5)CC4)cc3)nc12,1.6
6,C[C@@H]1CCCN1CCc1ccc2nc(-c3cn4c(n3)SCC4)ccc2c1,3.1
7,Cc1nc(C)c(-c2ccc3cc(CCN4CCC[C@H]4C)ccc3n2)s1,2.9
8,CC(C)N1CCN(C(=O)N2CC=C(c3ccccc3)CC2)CC1,1.4
9,C[C@@H]1CCCN1CCc1ccc2nc(-c3ccc(-n4ccc(=O)cc4)cc3)ccc2c1,3.4
10,Cn1c(-c2ccc(OC3CCN(C4CCCC4)CC3)cc2)nc2ccccc2c1=O,2.6
11,COc1cccc2nc(C)n(-c3ccc(OCCCN4CCCC4)cc3)c(=O)c12,1.7
12,Cc1c(-c2ccc3cc(CCN4CCC[C@H]4C)ccc3n2)sc2ncnn12,2.8
13,CC(C)n1c(-c2ccc(OCCCN3CCCCC3)cc2)nc2ccccc2c1=O,3
14,CC(C)N1CCN(C(=O)N2CCC(Cc3ccccc3)CC2)CC1,2
15,O=C(N1Cc2ccccc2C1)N1CCC[C@H]1CN1CCCC1,0.9
16,Cc1nc2c(F)cccc2c(=O)n1-c1ccc(OCCCN2CCCC2)cc1,1.9
17,O=C(c1ccccc1-c1ccc(OCCCN2CCCCC2)cc1)N1CCCCC1,3.2
18,COc1ccc(-c2cnc3nc(N4CCC(N5CCCCC5)CC4)sc3c2)cn1,1.4
19,CC[C@@H]1Sc2ccccc2O[C@@H]1c1ccc(OCCCN2CCCC2)cc1,3.8
20,CN(C)C1CCC(c2ccc(OCCCN3CCCCC3)cc2)CC1 (configuration not stated),1.4
21,Cc1n[nH]c(C)c1-c1ccc2cc(CCN3CCC[C@H]3C)ccc2n1,2.5
22,Cc1cc(-c2nc(-c3ccc4cc(CCN5CCC[C@H]5C)ccc4n3)cs2)no1,3.5
23,Cc1cccc2nc(C)n(-c3ccc(OCCCN4CCCC4)cc3)c(=O)c12,2.2
24,COc1cccc2c1OC(c1ccc(OCCCN3CCC[C@@H]3C)cc1)C(C)S2(=O)=O (some centres not stated),2.6
25,COC(=O)N1CC(Oc2cccc(F)c2)CC1C(=O)N1CCCN(C2CCC2)CC1 (configuration not stated),1.8
26,C[C@@H]1CCCN1CCc1ccc2nc(-c3csc(-c4ccccc4)n3)ccc2c1,4.4

row,Compound,logD
1,CC(C)N1CCN(C(=O)N2CCC(NC(=O)C3CCCC3)CC2)CC1,0.2
2,C[C@@H]1CCCN1CCc1ccc2nc(C3CC3)ccc2c1,2.7
3,Fc1cc(-c2cnc3nc(N4CCC(N5CCCCC5)CC4)sc3c2)ccn1,1.5
4,Cn1c(-c2ccc(OC3CCN(C4CCC4)CC3)cc2)nc2ccccc2c1=O,2.2
5,Nc1cnc(-c2cnc3nc(N4CCC(N5CCCCC5)CC4)sc3c2)cn1,-0.1
6,c1ccc([C@@H]2Sc3ccccc3O[C@@H]2c2ccc(OCCCN3CCCC3)cc2)cc1,4.5
7,C[C@@H]1CCCN1CCc1ccc(-c2ccc(S(=O)(=O)N3CCC(O)C3)cc2)cc1 (some centres not stated),1.5
8,C[C@@H]1CCCN1CCc1ccc2nc(-c3ccc(C#N)cc3)ccc2c1,3.5
9,C[C@@H]1CCCN1CCc1ccc2nc(-c3ccc4c(c3)COCO4)ccc2c1,3.2
10,CCc1nc2ccccc2c(=O)n1-c1ccc(OCCCN2CCCC2)cc1,2.4
11,COc1cccc2nc(-c3ccc(OC4CCN(C5CCC5)CC4)cc3)n(C)c(=O)c12,2.2
12,O=c1ccc(-c2cnc3nc(N4CCC(N5CCCCC5)CC4)sc3c2)c[nH]1,1.2
13,Cc1ccc(-c2cnc3nc(N4CCC(N5CCCCC5)CC4)sc3c2)cn1,1.2
14,O=C(C1CC(Oc2ccc(F)cc2)CN1)N1CCCN(C2CCCC2)CC1 (configuration not stated),0.9
15,Cc1nc2cc(C(F)(F)F)ccc2c(=O)n1-c1ccc(OCCCN2CCCC2)cc1,2.6
16,CC(=O)Nc1ccc(-c2cnc3nc(N4CCC(N5CCCCC5)CC4)sc3c2)cn1,0.6
17,C[C@@H]1CCCN1CCc1ccc(-c2ccc(S(=O)(=O)NCc3ccccc3)cc2)cc1,3.6
18,c1c[nH]c(-c2ccc(OCCCN3CCCCC3)cc2)n1,1.6
19,C[C@@H]1CCCN1CCc1ccc2nc(-c3nc4ccccc4s3)ccc2c1,4.1
20,CC(C)N1CCN(C(=O)N2CCC(C(=O)OC(C)(C)C)CC2)CC1,0.6
21,COC(=O)c1cc(-c2ccc3cc(CCN4CCC[C@H]4C)ccc3n2)on1,2.7
22,COc1cc(-c2cc3sc(N4CCC(N5CCCCC5)CC4)nc3cn2)ccn1,1.6
23,C[C@@H]1CCCN1CCc1ccc2nc(-c3cncnc3)ccc2c1,1.9
24,O=c1c2ccccc2nc(-c2ccc(OCCCN3CCCCC3)cc2)n1Cc1ccccc1,3.8
